Data from patent US20230146455A1, “TREATMENT OF INFLAMMATORY DISEASES WITH PEPTIDES AND PHARMACEUTICAL COMPOSITIONS” (Yuyu Pharma, Inc., priority 2020, published 2023).
Values joined by “and” are separate entries in the source; they are usually repeats but may differ in a detail not shown here. Identical values can stand only once. Where a SMILES comes first, the peptide text is derived from it. [ ]: non-standard residue; d: D form. Hyp = O=C(O)[C@@H]1C[C@@H](O)CN1

What was measured:
IL-10 = assay: Example 9 Luminex, LPS hPBMCs: IL-10; format: cell-based, human; settings: IL-10
Method: (§1) Treatment Human PBMCs were pretreated with YY-101, YDE-011 and YDE-043 or reference compound; Xiidra® at various concentration (ranging from 1 nM to 100 uM) for 2 h before stimulation. An equal volume of 0.5% DMSO was used as a vehicle control. Then, the cells were treated with LPS at 5 ug/ml. The supernatants from treated cells were harvested at 24 h and placed in a 96 well for Luminex cytokine & chemokine profiling using a Luminex 200 multiplex assay (Luminex; R&D system, USA).
(§2) The main study arm with triplicate wells per group in a 24-well plate: • 1. Blank • 2. PBMC: 0.5% DMSO • 3. PBMC+LPS (5 ug/ml) • 4. PBMC+YY-101 100 uM • 5. PBMC+YY-101 10 uM • 6. PBMC+YY-101 1 uM • 7. PBMC+YY-101 0.1 uM • 8. PBMC+YY-101 0.01 uM • 9. PBMC+LPS (5 ug/ml)+Xiidra®100 uM • 10. PBMC+LPS (5 ug/ml)+Xiidra® 10 uM • 11. PBMC+LPS (5 ug/ml)+Xiidra® 1 uM • 12. PBMC+LPS (5 ug/ml)+Xiidra®0.1 uM • 13. PBMC+LPS (5 ug/ml)+Xiidra®0.01 uM • 14. PBMC+LPS (5 ug/ml)+Xiidra®0.001 uM • 15. PBMC+LPS (5 ug/ml)+YY-101 100 uM • 16. PBMC+LPS (5 ug/ml)+YY-101 10 uM • 17. PBMC+LPS (5 ug/ml)+YY-101 1 uM • 18. PBMC+LPS (5 ug/ml)+YY-101 0.1 uM • 19. PBMC+LPS (5 ug/ml)+YY-101 0.01 uM • 20. PBMC+LPS (5 ug/ml)+YY-101 0.001 uM • 21. PBMC+LPS (5 ug/ml)+YDE-011 100 uM • 22. PBMC+LPS (5 ug/ml)+YDE-011 10 uM • 23. PBMC+LPS (5 ug/ml)+YDE-011 1 uM • 24. PBMC+LPS (5 ug/ml)+YDE-011 0.1 uM • 25. PBMC+LPS (5 ug/ml)+YDE-011 0.01 uM • 26. PBMC+LPS (5 ug/ml)+YDE-011 0.001 uM • 27. PBMC+LPS (5 ug/ml)+YDE-043 100 uM • 28. PBMC+LPS (5 ug/ml)+YDE-043 10 uM • 29. PBMC+LPS (5 ug/ml)+YDE-043 1 uM • 30. PBMC+LPS (5 ug/ml)+YDE-043 0.1 uM • 31. PBMC+LPS (5 ug/ml)+YDE-043 0.01 uM • 32. PBMC+LPS (5 ug/ml)+YDE-043 0.001 uM
(§3) Multiplex assay was used to measure 30 cytokines and chemokines. The 1:2, 1:10 and 1:200 diluted cell supernatant and serial dilution of the standard were dispensed into a 96 well plate at 50 ul/well. Then, the pre-mixed cocktail of antibody-coated magnetic beads was dispensed at 50 ul/well and incubated at room temperature for 2 h in a horizontal orbital microplate shaker at 800±500 rpm. The beads were washed using a magnetic device to prevent loss. The biotin-antibody was dispensed in 50 ul of each well and incubated at room temperature for 1 h in a shaker at 800±500 rpm. After washing, streptavidin-PE was added at 50 ul/well and incubated at room temperature for 30 min in a shaker under the same conditions. Finally, after washing, wash buffer (100 ul/well) was added to the plate and incubated in a shaker for 2 min. The Luminex™ 200 setting were set according to the manufacturer's protocol. The data was calculated with a standard five-parameter logistic nonlinear regression analysis of the data (xPonent software 4.2, USA). The levels of cytokine/chemokine are normalized to the live cell counts (1×10^5 cells/mL) and presented as concentrations per mL (pg/mL or ng/mL).

TNF-alpha = assay: Example 9 Luminex, LPS hPBMCs: TNF-alpha; format: cell-based, human
Method: as §1, §2, §3

[1] = PBMC + LPS(5 ug/ml) + test article 0.001 uM, Mean
[2] = PBMC + LPS(5 ug/ml) + test article 0.001 uM, single replicates
[3] = PBMC + LPS(5 ug/ml) + test article 0.01 uM, Mean
[4] = PBMC + LPS(5 ug/ml) + test article 0.01 uM, single replicates
[5] = PBMC + LPS(5 ug/ml) + test article 0.1 uM, Mean
[6] = PBMC + LPS(5 ug/ml) + test article 0.1 uM, single replicates
[7] = PBMC + LPS(5 ug/ml) + test article 1 uM, Mean
[8] = PBMC + LPS(5 ug/ml) + test article 1 uM, single replicates
[9] = PBMC + LPS(5 ug/ml) + test article 10 uM, Mean
[10] = PBMC + LPS(5 ug/ml) + test article 10 uM, single replicates
[11] = PBMC + LPS(5 ug/ml) + test article 100 uM, Mean
[12] = PBMC + LPS(5 ug/ml) + test article 100 uM, single replicates
[13] = PBMC + LPS(5 ug/ml) + test article 0.001 uM, individual replicates (1st, 2nd, 3rd)
[14] = PBMC + LPS(5 ug/ml) + test article 0.01 uM, individual replicates (1st, 2nd, 3rd)
[15] = PBMC + LPS(5 ug/ml) + test article 0.1 uM, individual replicates (1st, 2nd, 3rd)
[16] = PBMC + LPS(5 ug/ml) + test article 1 uM, individual replicates (1st, 2nd, 3rd)
[17] = PBMC + LPS(5 ug/ml) + test article 10 uM, individual replicates (1st, 2nd, 3rd)
[18] = PBMC + LPS(5 ug/ml) + test article 100 uM, individual replicates (1st, 2nd, 3rd)

With `CC(C)C[C@H](NC(=O)CNC(=O)[C@H](CC(C)C)NC(=O)[C@H](CCC(N)=O)NC(=O)CNC(=O)[C@@H]1C[C@@H](O)CN1)C(=O)N[C@@H](C)C(=O)NCC(=O)N1CCC[C@H]1C(=O)N[C@@H](CCCCN)C(=O)O` [YDE-011] (H-[Hyp]GQLGLAGPK-OH) the “Concentration” value (IL-10; [1]) was 303.8 pg/mL, the “conc/live cell (pg/10^5)” value (IL-10; [1]) was 57.2 pg/10^5 and the “Concentration” value (IL-10; [2]) was 291.0 pg/mL and 314.2 pg/mL and 306.3 pg/mL. For the same compound, the “conc/live cell (pg/10^5)” value (IL-10; [2]) was 64.7 pg/10^5 and 54.2 pg/10^5 and 52.8 pg/10^5, the “Concentration” value (IL-10; [3]) was 318.0 pg/mL and the “conc/live cell (pg/10^5)” value (IL-10; [3]) was 54.4 pg/10^5. The “Concentration” value (IL-10; [4]) was 333.6 pg/mL and 325.0 pg/mL and 295.4 pg/mL, the “conc/live cell (pg/10^5)” value (IL-10; [4]) was 52.9 pg/10^5 and 52.4 pg/10^5 and 57.9 pg/10^5 and the “Concentration” value (IL-10; [5]) was 308.9 pg/mL. The “conc/live cell (pg/10^5)” value (IL-10; [5]) was 54.4 pg/10^5, the “Concentration” value (IL-10; [6]) was 299.0 pg/mL and 317.8 pg/mL and 309.9 pg/mL and the “conc/live cell (pg/10^5)” value (IL-10; [6]) was 45.3 pg/10^5 and 63.6 pg/10^5 and 54.4 pg/10^5. For the same compound, the “Concentration” value (IL-10; [7]) was 314.7 pg/mL, the “conc/live cell (pg/10^5)” value (IL-10; [7]) was 62.8 pg/10^5 and the “Concentration” value (IL-10; [8]) was 314.2 pg/mL and 319.3 pg/mL and 310.6 pg/mL. For the same compound, the “conc/live cell (pg/10^5)” value (IL-10; [8]) was 57.1 pg/10^5 and 66.5 pg/10^5 and 64.7 pg/10^5, the “Concentration” value (IL-10; [9]) was 300.7 pg/mL and the “conc/live cell (pg/10^5)” value (IL-10; [9]) was 57.3 pg/10^5. The “Concentration” value (IL-10; [10]) was 299.0 pg/mL and 295.4 pg/mL and 307.7 pg/mL, the “conc/live cell (pg/10^5)” value (IL-10; [10]) was 55.4 pg/10^5 and 50.9 pg/10^5 and 65.5 pg/10^5 and the “Concentration” value (IL-10; [11]) was 111.4 pg/mL. The “conc/live cell (pg/10^5)” value (IL-10; [11]) was 18.4 pg/10^5, the “Concentration” value (IL-10; [12]) was 99.4 pg/mL and 113.9 pg/mL and 121.1 pg/mL and the “conc/live cell (pg/10^5)” value (IL-10; [12]) was 16.3 pg/10^5 and 18.7 pg/10^5 and 20.2 pg/10^5. For the same compound, the “TNF-alpha Concentration” value (TNF-alpha; [1]) was 1257.3 pg/mL, the TNF-alpha conc/live cell (TNF-alpha; [1]) was 237.4 pg/10^5 and the “TNF-alpha Concentration” value (TNF-alpha; [13]) was 1245.3 pg/mL and 1240.9 pg/mL and 1285.6 pg/mL. The TNF-alpha conc/live cell (TNF-alpha; [13]) was 276.7 pg/10^5 and 213.9 pg/10^5 and 221.7 pg/10^5, the “TNF-alpha Concentration” value (TNF-alpha; [3]) was 1293.5 pg/mL and the TNF-alpha conc/live cell (TNF-alpha; [3]) was 222.4 pg/10^5. For the same compound, the “TNF-alpha Concentration” value (TNF-alpha; [14]) was 1285.6 pg/ml (2×) and 1309.5 pg/ml, the TNF-alpha conc/live cell (TNF-alpha; [14]) was 207.4 pg/10^5 and 252.1 pg/10^5 and 207.9 pg/10^5 and the “TNF-alpha Concentration” value (TNF-alpha; [5]) was 1269.7 pg/mL. For the same compound, the TNF-alpha conc/live cell (TNF-alpha; [5]) was 223.0 pg/10^5, the “TNF-alpha Concentration” value (TNF-alpha; [15]) was 1273.7 pg/mL and 1276.6 pg/mL and 1258.7 pg/mL and the TNF-alpha conc/live cell (TNF-alpha; [15]) was 193.0 pg/10^5 and 255.3 pg/10^5 and 220.8 pg/10^5. For the same compound, the “TNF-alpha Concentration” value (TNF-alpha; [7]) was 1256.8 pg/mL, the TNF-alpha conc/live cell (TNF-alpha; [7]) was 250.5 pg/10^5 and the “TNF-alpha Concentration” value (TNF-alpha; [16]) was 1282.6 pg/mL and 1208.1 pg/mL and 1279.6 pg/mL. The TNF-alpha conc/live cell (TNF-alpha; [16]) was 233.2 pg/10^5 and 251.7 pg/10^5 and 266.6 pg/10^5, the “TNF-alpha Concentration” value (TNF-alpha; [9]) was 1330.4 pg/mL and the TNF-alpha conc/live cell (TNF-alpha; [9]) was 253.3 pg/10^5. For the same compound, the “TNF-alpha Concentration” value (TNF-alpha; [17]) was 1399.2 pg/mL and 1255.8 pg/mL and 1336.4 pg/mL, the TNF-alpha conc/live cell (TNF-alpha; [17]) was 259.1 pg/10^5 and 216.5 pg/10^5 and 284.3 pg/10^5 and the “TNF-alpha Concentration” value (TNF-alpha; [11]) was 968.4 pg/mL. The TNF-alpha conc/live cell (TNF-alpha; [11]) was 159.6 pg/10^5, the “TNF-alpha Concentration” value (TNF-alpha; [18]) was 985.6 pg/mL and 960.5 pg/mL and 959.0 pg/mL and the TNF-alpha conc/live cell (TNF-alpha; [18]) was 161.6 pg/10^5 and 157.5 pg/10^5 and 159.8 pg/10^5.
